According to ChEMBL document CHEMBL1201862, “PubChem BioAssay data set” (2004):
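Cultured in 96-well plates, cells were exposed to test compound for 48 hours across five concentrations. The concentration for 50% growth inhibition is given as GI50.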 The source made the active and inactive calls. Cut-off read from the data, not from the text of the source: active = GI50 up to about 1.1 µM and inactive = higher.

Assays:
Assay in all cases: growth of human tumour cells (NCI), 48 h
HOP-18 = tested on: HOP-18
DMS-114 = tested on: DMS-114
LXFL 529 = tested on: LXFL 529
M19-MEL = tested on: M19-MEL
KM-20L2 = tested on: KM-20L2
DMS-273 = tested on: DMS-273
DLD-1 = tested on: DLD-1
XF498 = tested on: XF498
RXF 631 = tested on: RXF 631

Structure (SMILES)	GI50 (HOP-18)	GI50 (DMS-114)	GI50 (LXFL 529)	GI50 (M19-MEL)	GI50 (KM-20L2)	GI50 (DMS-273)	GI50 (DLD-1)	GI50 (XF498)	GI50 (RXF 631)
NS(=O)(=O)c1cc2c(cc1Cl)NC(C(=O)NNC(=O)c1ccncc1)=NS2(=O)=O	> 100 µM (inactive)	> 100 µM (inactive)	> 100 µM (inactive)	> 100 µM (inactive)	> 100 µM (inactive)	> 100 µM (inactive)	> 100 µM (inactive)	> 100 µM (inactive)	–
O=c1[nH]c(-c2ccccc2)nc2cc(Cl)ccc12	–	> 100 µM (inactive)	> 100 µM (inactive)	> 100 µM (inactive)	> 100 µM (inactive)	> 100 µM (inactive)	> 100 µM (inactive)	> 100 µM (inactive)	> 100 µM (inactive)
CN(C)CCNC(=O)Cc1ccccc1Nc1c(Cl)cccc1Cl	–	17.7 µM (inactive)	17.7 µM (inactive)	14.8 µM (inactive)	4.31 µM (inactive)	16.7 µM (inactive)	14.2 µM (inactive)	–	–
c1ccc(Nc2nnc(CSc3nc(-c4ccccc4)c(-c4ccccc4)[nH]3)s2)cc1	–	27.5 µM (inactive)	20.1 µM (inactive)	15.3 µM (inactive)	26.7 µM (inactive)	16.8 µM (inactive)	53.8 µM (inactive)	–	–
CCOC(=O)Cc1nc2ccccc2s1	24.8 µM (inactive)	–	16 µM (inactive)	18.4 µM (inactive)	27.6 µM (inactive)	22.6 µM (inactive)	16.6 µM (inactive)	14.8 µM (inactive)	16.8 µM (inactive)
COC(=O)c1c(-c2cc(OC)c(OC)c(OC)c2)oc2ccccc2c1=O	> 100 µM (inactive)	–	63.4 µM (inactive)	> 100 µM (inactive)	> 100 µM (inactive)	84.9 µM (inactive)	52 µM (inactive)	–	–
CO[C@@]12[C@H](COC(N)=O)C3=C(C(=O)C(C)=C(N)C3=O)N1C[C@H]1[C@@H]2N1C (stereo partly drawn) [PORFIROMYCIN]	4.75 µM (inactive)	–	–	2.74 µM (inactive)	7.98 µM (inactive)	0.401 µM (active)	9.62 µM (inactive)	3.61 µM (inactive)	–
CC1CC(C)C(C(O)CC2CC(=O)N(c3ccccc3)C(=O)C2)C(O)C1 (stereo not drawn)	> 100 µM (inactive)	> 100 µM (inactive)	> 100 µM (inactive)	> 100 µM (inactive)	> 100 µM (inactive)	> 100 µM (inactive)	> 100 µM (inactive)	–	–
CCCCCCCCCCCCCCCC(=O)OCCOCCOCCOCCOCCOC(=O)CCCCCCCCCCCCCCC	> 100 µM (inactive)	> 100 µM (inactive)	> 100 µM (inactive)	> 100 µM (inactive)	> 100 µM (inactive)	> 100 µM (inactive)	> 100 µM (inactive)	–	> 100 µM (inactive)
O=[N+]([O-])c1cc([N+](=O)[O-])c(C(Cl)C(Cl)c2ccccc2)cc1C(Cl)C(Cl)c1ccccc1 (stereo not drawn)	1.46 µM (inactive)	1.7 µM (inactive)	1.54 µM (inactive)	1.83 µM (inactive)	2.06 µM (inactive)	2.03 µM (inactive)	1.71 µM (inactive)	1.87 µM (inactive)	2.07 µM (inactive)
CC(C(=O)n1nnc2ccccc21)N(c1ccccc1)c1ccccc1 (stereo not drawn)	–	–	> 100 µM (inactive)	> 100 µM (inactive)	> 100 µM (inactive)	91.6 µM (inactive)	> 100 µM (inactive)	–	–
CC[C@@H]1C[C@@H]2CN3CCc4c([nH]c5ccc(OC)cc45)C(COC(=O)c4ccc(OC)c(OC)c4)(C2)C13	58.2 µM (inactive)	11.6 µM (inactive)	10.6 µM (inactive)	36 µM (inactive)	15.6 µM (inactive)	–	–	17.3 µM (inactive)	–
